Experimental data as given in patent publication US5202315A, “Cephalosporin compounds” (Lucky, Ltd., priority 1989, dated 1993).
In brackets after ≈: the same amount, converted by molar mass.

Experiments:
[1] = tested on: Escherichia coli; experiment: Antibacterial activity against clinically isolated strains, MIC; format: cell-based; conditions: 38 clinical isolates, broth microdilution test
[2] = tested on: Pseudomonas aeruginosa; experiment: as above; format: cell-based; conditions: 54 clinical isolates, broth microdilution test; for MIC90: read-out: MIC 90%
[3] = tested on: Staphylococcus aureus methicillin susceptible; experiment: as above; format: cell-based; conditions: methicillin susceptible, 42 clinical isolates, broth microdilution test; for MIC90: read-out: MIC 90%
[4] = In-vivo absorbency (plasma concentrations & pharmacokinetic parameters); set-up: species or system SD rat (male); conditions: plasma, SD male rat, iv 20 mg/kg, read-out: Plasma Conc.
[5] = tested on: Pseudomonas aeruginosa ATCC 25619; experiment: Antibacterial activity, MIC; format: cell-based; conditions: ATCC25619, ATCC 25619, agar two-fold dilution, 37° C., 20 hours, read-out: MIC
Summary of the method: (§1)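 Agar two-fold dilution method: compound serially diluted two-fold in Mueller-Hinton agar, spotted with 2 μl of a 10^7 CFU/ml inoculum of each standard strain, then incubated at 37 °C for 20 h.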

[6] = tested on: Staphylococcus aureus ATCC 10537; experiment: Antibacterial activity, MIC; format: cell-based; conditions: ATCC10537, ATCC 10537, agar two-fold dilution, 37° C., 20 hours, read-out: MIC
Summary of the method: as §1

[7] = tested on: Klebsiella pneumoniae ATCC 10031; experiment: Antibacterial activity, MIC; format: cell-based; conditions: ATCC10031, ATCC 10031, agar two-fold dilution, 37° C., 20 hours, read-out: MIC
Summary of the method: as §1

[8] = tested on: Escherichia coli ATCC 25922; experiment: Antibacterial activity, MIC; format: cell-based; conditions: ATCC25922, agar two-fold dilution, 37° C., 20 hours
Summary of the method: as §1

[9] = tested on: Staphylococcus epidermidis ATCC 12228; experiment: Antibacterial activity, MIC; format: cell-based; conditions: ATCC12228, ATCC 12228, agar two-fold dilution, 37° C., 20 hours, read-out: MIC
Summary of the method: as §1

[10] = tested on: Morganella morganii ATCC 8076h; experiment: Antibacterial activity, MIC; format: cell-based; conditions: ATCC8076H, agar two-fold dilution, 37° C., 20 hours
Summary of the method: as §1

[11] = tested on: Enterobacter cloacae ATCC 27508; experiment: Antibacterial activity, MIC; format: cell-based; conditions: ATCC27508, ATCC 27508, agar two-fold dilution, 37° C., 20 hours, read-out: MIC
Summary of the method: as §1

[12] = tested on: Shigella flexneri ATCC 11836; experiment: Antibacterial activity, MIC; format: cell-based; conditions: ATCC11836, agar two-fold dilution, 37° C., 20 hours
Summary of the method: as §1

[13] = tested on: Bacillus megaterium ATCC 9885; experiment: Antibacterial activity, MIC; format: cell-based; conditions: Priestia megaterium, ATCC9885; ATCC 9885; agar two-fold dilution, 37° C., 20 hours; read-out: MIC
Summary of the method: as §1

[14] = tested on: Proteus mirabilis ATCC 25933; experiment: Antibacterial activity, MIC; format: cell-based; conditions: ATCC25933, ATCC 25933, agar two-fold dilution, 37° C., 20 hours, read-out: MIC
Summary of the method: as §1

[15] = tested on: Enterobacter aerogenes ATCC 29751; experiment: Antibacterial activity, MIC; format: cell-based; conditions: Klebsiella aerogenes, ATCC29751; ATCC 29751; agar two-fold dilution, 37° C., 20 hours; read-out: MIC
Summary of the method: as §1

[16] = tested on: Salmonella typhimurium ATCC 14028; experiment: Antibacterial activity, MIC; format: cell-based; conditions: Salmonella enterica; ATCC 14028; agar two-fold dilution, 37° C., 20 hours; read-out: MIC
Summary of the method: as §1

[17] = tested on: Pseudomonas aeruginosa ATCC 27853; experiment: Antibacterial activity, MIC; format: cell-based; conditions: ATCC27853, ATCC 27853, agar two-fold dilution, 37° C., 20 hours, read-out: MIC
Summary of the method: as §1

[18] = tested on: Micrococcus luteus ATCC 9341; experiment: Antibacterial activity, MIC; format: cell-based; conditions: ATCC9341, ATCC 9341, agar two-fold dilution, 37° C., 20 hours, read-out: MIC
Summary of the method: as §1

[19] = tested on: Pseudomonas aeruginosa ATCC 10145; experiment: Antibacterial activity, MIC; format: cell-based; conditions: ATCC10145, ATCC 10145, agar two-fold dilution, 37° C., 20 hours, read-out: MIC
Summary of the method: as §1

[20] = tested on: Staphylococcus aureus ATCC 6538p; experiment: Antibacterial activity, MIC; format: cell-based; conditions: ATCC6538P, ATCC 6538p, agar two-fold dilution, 37° C., 20 hours, read-out: MIC
Summary of the method: as §1

[21] = tested on: Proteus vulgaris ATCC 6059; experiment: Antibacterial activity, MIC; format: cell-based; conditions: ATCC6059, ATCC 6059, agar two-fold dilution, 37° C., 20 hours, read-out: MIC
Summary of the method: as §1

[22] = tested on: Shigella sonnei ATCC 11060; experiment: Antibacterial activity, MIC; format: cell-based; conditions: ATCC11060, ATCC 11060, agar two-fold dilution, 37° C., 20 hours, read-out: MIC
Summary of the method: as §1

[23] = tested on: Acinetobacter calcoaceticus ATCC 15473; experiment: Antibacterial activity, MIC; format: cell-based; conditions: ATCC15473, ATCC 15473, agar two-fold dilution, 37° C., 20 hours, read-out: MIC
Summary of the method: as §1

[24] = tested on: Bacillus cereus ATCC 11778; experiment: Antibacterial activity, MIC; format: cell-based; conditions: ATCC11778, ATCC 11778, agar two-fold dilution, 37° C., 20 hours, read-out: MIC
Summary of the method: as §1

[25] = tested on: Serratia marcescens ATCC 27117; experiment: Antibacterial activity, MIC; format: cell-based; conditions: ATCC27117, ATCC 27117, agar two-fold dilution, 37° C., 20 hours, read-out: MIC
Summary of the method: as §1

[26] = tested on: Providencia rettgeri ATCC 9250; experiment: Antibacterial activity, MIC; format: cell-based; conditions: ATCC9250, agar two-fold dilution, 37° C., 20 hours
Summary of the method: as §1

[27] = tested on: Citrobacter freundii ATCC 8090; experiment: Antibacterial activity, MIC; format: cell-based; conditions: ATCC8090, ATCC 8090, agar two-fold dilution, 37° C., 20 hours, read-out: MIC
Summary of the method: as §1

[28] = tested on: Escherichia coli ATCC 10536; experiment: Antibacterial activity, MIC; format: cell-based; conditions: ATCC10536, agar two-fold dilution, 37° C., 20 hours
Summary of the method: as §1

Structure (SMILES) | MIC50 [1] [µg/mL] | MIC90 [1] [µg/mL] | MIC50 [2] [µg/mL] | MIC90 [2] [µg/mL] | MIC50 [3] [µg/mL] | MIC90 [3] [µg/mL] | concentration at 1 min [4] [µg/mL] | concentration at 2.5 min [4] [µg/mL] | concentration at 5 min [4] [µg/mL] | concentration at 10 min [4] [µg/mL] | concentration at 20 min [4] [µg/mL] | concentration at 40 min [4] [µg/mL] | MIC [5] [µg/mL] | MIC [6] [µg/mL] | MIC [7] [µg/mL] | MIC [8] [µg/mL] | MIC [9] [µg/mL] | MIC [10] [µg/mL] | MIC [11] [µg/mL] | MIC [12] [µg/mL] | also measured
CC[n+]1c(N)cc(N)nc1SCC1=C(C(=O)[O-])N2C(=O)C(NC(=O)/C(=N\OC(C)C(=O)O)c3csc(N)n3)C2SC1 (stereo not shown) [Compound I-5] | 0.063 (≈ 0.101 µM) | 0.13 (≈ 0.208 µM) | 4 (≈ 6.41 µM) | 8 (≈ 12.8 µM) | 4 (≈ 6.41 µM) | 4 (≈ 6.41 µM) | 134 | 91 | 72 | 49 | 29 | 13 | 1 (≈ 1.6 µM) | 2 (≈ 3.21 µM) | 0.031 (≈ 0.0497 µM) | 0.063 (≈ 0.101 µM) | 1 (≈ 1.6 µM) | ≤ 0.008 | 0.016 (≈ 0.0257 µM) | 0.031 (≈ 0.0497 µM) | MIC [13]: 1 µg/mL (≈ 1.6 µM); MIC [14]: 0.031 µg/mL (≈ 0.0497 µM); MIC [15]: 0.5 µg/mL (≈ 0.802 µM); MIC [16]: 0.13 µg/mL (≈ 0.208 µM); MIC [17]: 1 µg/mL (≈ 1.6 µM); MIC [18]: 0.25 µg/mL (≈ 0.401 µM); MIC [19]: 2 µg/mL (≈ 3.21 µM); MIC [20]: 2 µg/mL (≈ 3.21 µM); MIC [21]: 0.031 µg/mL (≈ 0.0497 µM); MIC [22]: 0.031 µg/mL (≈ 0.0497 µM); MIC [23]: 4 µg/mL (≈ 6.41 µM); MIC [24]: 128 µg/mL (≈ 205 µM); MIC [25]: 0.063 µg/mL (≈ 0.101 µM); MIC [26]: ≤ 0.008 µg/mL; MIC [27]: 0.063 µg/mL (≈ 0.101 µM); MIC [28]: 0.063 µg/mL (≈ 0.101 µM)
Cc1c(N)nc(SCC2=C(C(=O)[O-])N3C(=O)C(NC(=O)/C(=N\OC(C)(C)C(=O)O)c4csc(N)n4)C3SC2)[n+](C)c1N (stereo not shown) [Compound I-30] | 0.13 (≈ 0.204 µM) | 0.25 (≈ 0.392 µM) | 2 (≈ 3.14 µM) | 4 (≈ 6.27 µM) | 2 (≈ 3.14 µM) | 4 (≈ 6.27 µM) | 148 | 100 | 80 | 54 | 29 | 17 | 2 (≈ 3.14 µM) | 2 (≈ 3.14 µM) | 0.063 (≈ 0.0988 µM) | 0.063 (≈ 0.0988 µM) | 2 (≈ 3.14 µM) | ≤ 0.008 | 0.063 (≈ 0.0988 µM) | 0.031 (≈ 0.0486 µM) | concentration at 2.5 h ([4]; 150 min): 1.3 µg/mL; MIC [13]: 0.5 µg/mL (≈ 0.784 µM); MIC [14]: 0.031 µg/mL (≈ 0.0486 µM); MIC [15]: 2 µg/mL (≈ 3.14 µM); MIC [16]: 0.25 µg/mL (≈ 0.392 µM); MIC [17]: 2 µg/mL (≈ 3.14 µM); MIC [18]: 0.5 µg/mL (≈ 0.784 µM); MIC [19]: 2 µg/mL (≈ 3.14 µM); MIC [20]: 4 µg/mL (≈ 6.27 µM); MIC [21]: 0.063 µg/mL (≈ 0.0988 µM); MIC [22]: 0.063 µg/mL (≈ 0.0988 µM); MIC [23]: 4 µg/mL (≈ 6.27 µM); MIC [24]: 128 µg/mL (≈ 201 µM); MIC [25]: 0.13 µg/mL (≈ 0.204 µM); MIC [26]: ≤ 0.008 µg/mL; MIC [27]: 0.13 µg/mL (≈ 0.204 µM); MIC [28]: 0.063 µg/mL (≈ 0.0988 µM)
